Measured values from the supplement of paper PMC6045584.
± gives the standard deviation of the averaged measurements.

What was measured:
[1] = compound: CC(=O)NCC(=O)N1[C@@H]2CC[C@H]1c1ccc(Nc3ncc(C(F)(F)F)c(NC4CCC4)n3)cc12; assay: surviving fraction relative to DMSO-only wells; higher = less growth inhibition; settings: exposure time: 5 days
How it was run: (§1)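 Tumour cell lines were seeded in log phase at 250–500 cells per well into 384-well plates. Starting 24 hours later, inhibitors were present continuously for five days at 0.5, 1, 5, 10, 50, 100, 500 and 1000 nM. Surviving fraction, from CellTiter-Glo luminescence, is normalised to the median of DMSO-only wells. Three screens per line were required, with replicate Pearson r >0.7 and median Z' >0.3 for a line to be kept.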

PACLITAXEL [2] = compound: T1, CC(=O)O[C@H]1C(=O)[C@@]2(C)[C@H]([C@H](OC(=O)c3ccccc3)[C@]3(O)C[C@H](OC(=O)[C@H](O)[C@@H](NC(=O)c4ccccc4)c4ccccc4)C(C)=C1C3(C)C)[C@]1(OC(C)=O)CO[C@@H]1C[C@@H]2O [PACLITAXEL]; assay: as above; settings: exposure time: 5 days
How it was run: as §1

[3] = compound: CC(=O)c1c(C)c2cnc(Nc3ccc(N4CCNCC4)cn3)nc2n(C2CCCC2)c1=O; assay: as above; settings: exposure time: 5 days
How it was run: as §1

CAMPTOTHECIN [4] = compound: T2, CC[C@@]1(O)C(=O)OCc2c1cc1n(c2=O)Cc2cc3ccccc3nc2-1 [CAMPTOTHECIN]; assay: as above; settings: exposure time: 5 days
How it was run: as §1

YM155 [5] = compound: T3, COCC[n+]1c2c(n(Cc3cnccn3)c1C)C(=O)c1ccccc1C2=O [YM155]; assay: as above; settings: exposure time: 5 days
How it was run: as §1

GEFITINIB [6] = compound: T4, COc1cc2ncnc(Nc3ccc(F)c(Cl)c3)c2cc1OCCCN1CCOCC1 [GEFITINIB]; assay: as above; settings: exposure time: 5 days
How it was run: as §1

OSI-906 [7] = compound: T5, C[C@]1(O)C[C@@H](c2nc(-c3ccc4ccc(-c5ccccc5)nc4c3)c3c(N)nccn32)C1 [OSI-906]; assay: as above; settings: exposure time: 5 days
How it was run: as §1

CELECOXIB = compound: Cc1ccc(-c2cc(C(F)(F)F)nn2-c2ccc(S(N)(=O)=O)cc2)cc1 [CELECOXIB]; assay: as above; settings: exposure time: 5 days
How it was run: as §1

CARBOPLATIN [8] = compound: T6, O=C(O)C1(C(=O)O)CCC1.[NH2-].[NH2-].[Pt+2] [CARBOPLATIN]; assay: as above; settings: exposure time: 5 days
How it was run: as §1

[9] = compound: CC(=O)NCC(=O)N1[C@@H]2CC[C@H]1c1ccc(Nc3ncc(C(F)(F)F)c(NC4CCC4)n3)cc12; assay: area under dose-response curve of surviving fraction (unscaled, Aref=0) (surviving fraction x log10(nM)); higher = more resistant; settings: exposure time: 5 days; dose range 0.5-1000 nM
How it was run: (§2)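 Tumour cell lines in 384-well plates were exposed to eight inhibitor concentrations, from 0.5 to 1000 nM, for five days, and viability was read by CellTiter-Glo luminescence in three screens per line. Signals were normalised to DMSO-only wells, and 3-parameter logistic regression in the drc R package fitted dose-response survival curves to the surviving fractions. Area under the curve is given as the unscaled activity area. That area is taken over log10 dose with Aref = 0.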

PACLITAXEL [10] = compound: T1, PACLITAXEL; assay: as above; settings: exposure time: 5 days; dose range 0.5-1000 nM
How it was run: as §2

CAMPTOTHECIN [11] = compound: T2, CAMPTOTHECIN; assay: as above; settings: exposure time: 5 days; dose range 0.5-1000 nM
How it was run: as §2

YM155 [12] = compound: T3, YM155; assay: as above; settings: exposure time: 5 days; dose range 0.5-1000 nM
How it was run: as §2

GEFITINIB [13] = compound: T4, GEFITINIB; assay: as above; settings: exposure time: 5 days; dose range 0.5-1000 nM
How it was run: as §2

OSI-906 [14] = compound: T5, OSI-906; assay: as above; settings: exposure time: 5 days; dose range 0.5-1000 nM
How it was run: as §2

CARBOPLATIN [15] = compound: T6, CARBOPLATIN; assay: as above; settings: exposure time: 5 days; dose range 0.5-1000 nM
How it was run: as §2

MFM223 BREAST
surviving fraction ([1]; 0.5 nM): 1.1 ± 0.065 | surviving fraction ([1]; 1 nM): 1.02 ± 0.035 | surviving fraction ([1]; 5 nM): 1.05 ± 0.094 | surviving fraction ([1]; 10 nM): 0.963 ± 0.077 | surviving fraction ([1]; 50 nM): 0.794 ± 0.082 | surviving fraction ([1]; 100 nM): 0.699 ± 0.063 | surviving fraction ([1]; 500 nM): 0.47 ± 0.029 | surviving fraction ([1]; 1000 nM): 0.378 ± 0.027 | surviving fraction (PACLITAXEL [2]; 0.5 nM): 0.948 ± 0.056 | surviving fraction (PACLITAXEL [2]; 1 nM): 0.736 ± 0.066 | surviving fraction (PACLITAXEL [2]; 5 nM): 0.295 ± 0.026 | surviving fraction (PACLITAXEL [2]; 10 nM): 0.129 ± 0.012 | surviving fraction (PACLITAXEL [2]; 50 nM): 0.0873 ± 0.012 | surviving fraction (PACLITAXEL [2]; 100 nM): 0.0663 ± 0.003 | surviving fraction (PACLITAXEL [2]; 500 nM): 0.062 ± 0.0051 | surviving fraction (PACLITAXEL [2]; 1000 nM): 0.0632 ± 0.0075 | surviving fraction ([3]; 0.5 nM): 1.17 ± 0.042 | surviving fraction ([3]; 1 nM): 1.13 ± 0.078 | surviving fraction ([3]; 5 nM): 1.16 ± 0.11 | surviving fraction ([3]; 10 nM): 1.19 ± 0.062 | surviving fraction ([3]; 50 nM): 1.15 ± 0.14 | surviving fraction ([3]; 100 nM): 1.15 ± 0.1 | surviving fraction ([3]; 500 nM): 1.09 ± 0.031 | surviving fraction ([3]; 1000 nM): 1.03 ± 0.064 | surviving fraction (CAMPTOTHECIN [4]; 0.5 nM): 0.746 ± 0.07 | surviving fraction (CAMPTOTHECIN [4]; 1 nM): 0.703 ± 0.03 | surviving fraction (CAMPTOTHECIN [4]; 5 nM): 0.566 ± 0.047 | surviving fraction (CAMPTOTHECIN [4]; 10 nM): 0.573 ± 0.11 | surviving fraction (CAMPTOTHECIN [4]; 50 nM): 0.754 ± 0.087 | surviving fraction (CAMPTOTHECIN [4]; 100 nM): 0.662 ± 0.041 | surviving fraction (CAMPTOTHECIN [4]; 500 nM): 0.296 ± 0.072 | surviving fraction (CAMPTOTHECIN [4]; 1000 nM): 0.303 ± 0.1 | surviving fraction (YM155 [5]; 0.5 nM): 0.966 ± 0.082 | surviving fraction (YM155 [5]; 1 nM): 0.954 ± 0.19 | surviving fraction (YM155 [5]; 5 nM): 0.259 ± 0.2 | surviving fraction (YM155 [5]; 10 nM): 0.209 ± 0.15 | surviving fraction (YM155 [5]; 50 nM): 0.0798 ± 0.051 | surviving fraction (YM155 [5]; 100 nM): 0.085 ± 0.085 | surviving fraction (YM155 [5]; 500 nM): 0.116 ± 0.16 | surviving fraction (YM155 [5]; 1000 nM): 0.138 ± 0.18 | surviving fraction (GEFITINIB [6]; 0.5 nM): 1.49 ± 0.61 | surviving fraction (GEFITINIB [6]; 1 nM): 1.42 ± 0.47 | surviving fraction (GEFITINIB [6]; 5 nM): 1.51 ± 0.61 | surviving fraction (GEFITINIB [6]; 10 nM): 1.5 ± 0.53 | surviving fraction (GEFITINIB [6]; 50 nM): 1.19 ± 0.058 | surviving fraction (GEFITINIB [6]; 100 nM): 1.19 ± 0.092 | surviving fraction (GEFITINIB [6]; 500 nM): 1.12 ± 0.035 | surviving fraction (GEFITINIB [6]; 1000 nM): 1.14 ± 0.07 | surviving fraction (OSI-906 [7]; 0.5 nM): 0.716 ± 0.049 | surviving fraction (OSI-906 [7]; 1 nM): 0.791 ± 0.1 | surviving fraction (OSI-906 [7]; 5 nM): 0.768 ± 0.092 | surviving fraction (OSI-906 [7]; 10 nM): 0.811 ± 0.15 | surviving fraction (OSI-906 [7]; 50 nM): 1.05 ± 0.095 | surviving fraction (OSI-906 [7]; 100 nM): 1.02 ± 0.088 | surviving fraction (OSI-906 [7]; 500 nM): 1.09 ± 0.013 | surviving fraction (OSI-906 [7]; 1000 nM): 1.04 ± 0.017 | surviving fraction (CELECOXIB; 0.5 nM): 1.41 ± 0.52 | surviving fraction (CELECOXIB; 1 nM): 1.3 ± 0.2 | surviving fraction (CELECOXIB; 5 nM): 1.29 ± 0.26 | surviving fraction (CELECOXIB; 10 nM): 1.33 ± 0.34 | surviving fraction (CELECOXIB; 50 nM): 1.1 ± 0.034 | surviving fraction (CELECOXIB; 100 nM): 1.09 ± 0.1 | surviving fraction (CELECOXIB; 500 nM): 1.05 ± 0.11 | surviving fraction (CELECOXIB; 1000 nM): 1.03 ± 0.017 | surviving fraction (CARBOPLATIN [8]; 0.5 nM): 1.22 ± 0.071 | surviving fraction (CARBOPLATIN [8]; 1 nM): 1.22 ± 0.18 | surviving fraction (CARBOPLATIN [8]; 5 nM): 1.22 ± 0.18 | surviving fraction (CARBOPLATIN [8]; 10 nM): 1.15 ± 0.18 | surviving fraction (CARBOPLATIN [8]; 50 nM): 1.16 ± 0.021 | surviving fraction (CARBOPLATIN [8]; 100 nM): 1.12 ± 0.094 | surviving fraction (CARBOPLATIN [8]; 500 nM): 1.11 ± 0.077 | surviving fraction (CARBOPLATIN [8]; 1000 nM): 1.06 ± 0.11 | area under dose-response curve [9]: 2.67 | area under dose-response curve (PACLITAXEL [10]): 0.825 | area under dose-response curve (CAMPTOTHECIN [11]): 1.92 | area under dose-response curve (YM155 [12]): 0.996 | area under dose-response curve (GEFITINIB [13]): 3.88 | area under dose-response curve (OSI-906 [14]): 2.94 | area under dose-response curve (CARBOPLATIN [15]): 3.74
